Our source for the MED, Ki and Max response values is ChEMBL document CHEMBL1131396, “Structure-activity studies related to ABT-594, a potent nonopioid analgesic agent: effect of pyridine and azetidine ring substitutions on nicotinic acetylcholine receptor binding affinity and analgesic activity in mice” (Bioorg Med Chem Lett, 1998).

SMILES strings stand for the structures.

One experiment is filed under the species Mus musculus. As to the kind of experiment: Analgesic activity in a mouse hot plate assay. Format: functional. On the technique in general: Hot-plate and tail-flick tests time the reaction to a heat stimulus.
The target in experiment [1] is Neuronal acetylcholine receptor; alpha4/beta2 (Rattus norvegicus, UniProt P09483+P12390). As to the kind of experiment: Binding affinity towards Nicotinic acetylcholine receptor alpha4-beta2 in rat brain using [3H]-cytisine as radioligand. Format: tissue-based.
For experiment [2], the system named is IMR-32. Kind of experiment: Maximal response of compound was determined in an in vitro [86Rb+] release assay using IMR-32 cells. Format: functional, Homo sapiens.
Experiment [3] deals with IMR-32. As to the kind of experiment: Maximal response of compound at 1 uM concentration in an in vitro [86Rb+] release assay using IMR-32 cells. The class given is functional, Homo sapiens.
Experiment [4] deals with IMR-32. Kind of experiment: Maximal response of compound at concentration 3 uM concentration in an in vitro [86Rb+] release assay using IMR-32 cells. The class given is functional, Homo sapiens.
Experiment [5] has as its system IMR-32. Kind of experiment: Maximal response of compound at 10 uM concentration in an in vitro [86Rb+] release assay using IMR-32 cells. The class given is functional, Homo sapiens.

Neuronal acetylcholine receptor; alpha4/beta2, sequence (P09483 whole entry): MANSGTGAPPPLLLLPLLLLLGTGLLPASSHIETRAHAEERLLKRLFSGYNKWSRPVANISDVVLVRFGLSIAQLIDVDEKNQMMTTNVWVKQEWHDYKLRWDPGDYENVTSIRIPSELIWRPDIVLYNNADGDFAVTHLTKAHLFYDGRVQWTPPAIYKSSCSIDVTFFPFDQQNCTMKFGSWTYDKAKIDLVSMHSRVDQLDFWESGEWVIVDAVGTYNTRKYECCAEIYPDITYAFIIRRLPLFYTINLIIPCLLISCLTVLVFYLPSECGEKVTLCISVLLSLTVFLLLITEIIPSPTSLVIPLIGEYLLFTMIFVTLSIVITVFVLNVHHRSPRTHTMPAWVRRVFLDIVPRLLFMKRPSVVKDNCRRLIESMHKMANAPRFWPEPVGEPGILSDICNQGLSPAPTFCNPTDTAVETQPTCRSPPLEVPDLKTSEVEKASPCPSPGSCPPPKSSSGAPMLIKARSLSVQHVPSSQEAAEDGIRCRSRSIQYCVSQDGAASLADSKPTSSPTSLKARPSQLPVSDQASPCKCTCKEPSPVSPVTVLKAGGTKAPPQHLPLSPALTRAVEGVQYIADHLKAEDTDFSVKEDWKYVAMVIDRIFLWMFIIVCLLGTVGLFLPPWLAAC
Neuronal acetylcholine receptor; alpha4/beta2, sequence (P12390 whole entry): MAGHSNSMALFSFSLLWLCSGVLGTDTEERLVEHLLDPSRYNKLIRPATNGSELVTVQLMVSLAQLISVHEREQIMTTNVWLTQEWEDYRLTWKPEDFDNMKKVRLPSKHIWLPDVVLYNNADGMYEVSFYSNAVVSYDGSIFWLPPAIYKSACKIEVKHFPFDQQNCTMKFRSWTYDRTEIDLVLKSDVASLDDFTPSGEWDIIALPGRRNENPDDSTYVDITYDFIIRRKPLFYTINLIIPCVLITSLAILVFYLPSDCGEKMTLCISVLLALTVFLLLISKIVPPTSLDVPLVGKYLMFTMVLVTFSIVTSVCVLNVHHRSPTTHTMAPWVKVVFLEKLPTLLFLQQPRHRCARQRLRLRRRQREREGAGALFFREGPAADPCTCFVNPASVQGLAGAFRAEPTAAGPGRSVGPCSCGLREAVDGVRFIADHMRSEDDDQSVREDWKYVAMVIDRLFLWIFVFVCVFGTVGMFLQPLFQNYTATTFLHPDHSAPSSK

What is called Ki is the equilibrium dissociation constant of an inhibitor or competing ligand from its target. Read a high Ki as lower affinity. In turn, `CCOc1cncc(OC[C@@H]2CCN2)c1` gave an MED in the experiment filed under Mus musculus of 62 µM/kg. Moreover, the affinity in experiment [1] corresponds to a Ki of 0.039 nM. Consider `Oc1cncc(OC[C@H]2CCN2)c1`, for which, in the experiment listed under Mus musculus, the MED was greater than 62 µM/kg. The same compound came in with a Ki in experiment [1] of 0.088 nM. In the experiment with IMR-32 [2], `c1cncc(OC[C@@H]2CCN2)c1` registered a Max response of 113%. In addition, the MED in the experiment listed under Mus musculus was greater than 6.2 µM/kg. The compound further showed a Ki in experiment [1] of 0.052 nM. As to `N#Cc1cncc(OC[C@@H]2CCN2)c1`, the MED in the experiment listed under Mus musculus was greater than 6.2 µM/kg. Also, in experiment [1], the Ki turned out to be 0.025 nM. For `Cc1nc(Cl)ccc1OC[C@@H]1CCN1`, the MED in the experiment listed under Mus musculus was greater than 62 µM/kg. The Ki in experiment [1] came to 2.4 nM. Turning to `Clc1ncc(OC[C@@H]2CCN2)cc1-c1ccccc1`, the MED in the experiment listed under Mus musculus was greater than 6.2 µM/kg. The compound further had a Ki in experiment [1] of 0.022 nM. Moreover, the Max response in the experiment with IMR-32 [3] is 92%. Turning to `Clc1ccc(OC[C@@H]2CCN2)cn1`, in the experiment on IMR-32 [2], the Max response is given as 166%. In the experiment listed under Mus musculus, this compound registered an MED of 0.62 µM/kg. In experiment [1], this compound had a Ki of 0.04 nM. With `NCc1cncc(OC[C@@H]2CCN2)c1`, the MED in the experiment filed under Mus musculus is greater than 6.2 µM/kg. In experiment [1], this compound returned a Ki of 4.4 nM. `c1ccc(-c2cncc(OC[C@@H]3CCN3)c2)cc1`: in the experiment listed under Mus musculus, the MED is greater than 62 µM/kg. Also, the Max response in the experiment with IMR-32 [4] is on record as 45%. The compound further displayed a Ki in experiment [1] of 0.046 nM. In the experiment filed under Mus musculus, `COc1ccc(OC[C@@H]2CCN2)cn1` had an MED greater than 62 µM/kg. Also, the affinity in experiment [1] corresponds to a Ki of 1.3 nM.

With `Fc1ccc(OC[C@H]2CCN2)cn1`, in the experiment listed under Mus musculus, the MED is 1.9 µM/kg. This compound displayed a Ki in experiment [1] of 0.066 nM. In the experiment listed under Mus musculus, `CCCc1cncc(OC[C@@H]2CCN2)c1` displayed an MED of 62 µM/kg. For the same compound, affinity in experiment [1] was put at a Ki of 0.039 nM. Take `Fc1ncccc1OC[C@H]1CCN1`: the MED in the experiment listed under Mus musculus was greater than 62 µM/kg. Consider `N#Cc1ccc(OC[C@@H]2CCN2)cn1`, for which the MED in the experiment listed under Mus musculus amounted to 62 µM/kg. With `Cc1cncc(OC[C@H]2CCN2)c1`, in the experiment filed under Mus musculus, the MED was found to be 62 µM/kg. Further, the affinity in experiment [1] corresponds to a Ki of 0.16 nM. As for `O=[N+]([O-])c1cncc(OC[C@@H]2CCN2)c1`, in the experiment filed under Mus musculus, the MED is 62 µM/kg.

`CCc1ccc(OC[C@@H]2CCN2)cn1`: the MED in the experiment listed under Mus musculus was greater than 6.2 µM/kg. The compound also displayed a Ki in experiment [1] of 19 nM. As for `Clc1cc(OC[C@@H]2CCN2)cnc1Cl`, in the experiment filed under Mus musculus, the MED worked out at 0.62 µM/kg. In experiment [1], this compound came in with a Ki of 0.023 nM. On to `Clc1cncc(OC[C@H]2CCN2)c1`, for which the MED in the experiment filed under Mus musculus is 62 µM/kg. As to `Fc1ncccc1OC[C@@H]1CCN1`, the MED in the experiment listed under Mus musculus is 1.9 µM/kg. With `FC(F)(F)c1cncc(OC[C@@H]2CCN2)c1`, in the experiment listed under Mus musculus, the MED was greater than 19 µM/kg. For the same compound, the Ki in experiment [1] amounted to 0.49 nM.

As for `CC1(C)CN[C@H]1COc1ccc(Cl)nc1`, affinity in experiment [1] was put at a Ki of 37 nM. In the case of `Clc1ncc(OC[C@@H]2CCN2)cc1Br`, the MED in the experiment listed under Mus musculus is 1.9 µM/kg. Besides, the Ki in experiment [1] amounted to 0.015 nM.

For `Cc1cncc(OC[C@@H]2CCN2)c1`, the MED in the experiment listed under Mus musculus was greater than 62 µM/kg. Further, the Ki in experiment [1] was determined as 0.047 nM.

In the experiment filed under Mus musculus, `Fc1ccc(OC[C@@H]2CCN2)cn1` showed an MED of 6.2 µM/kg. Moreover, the affinity in experiment [1], expressed as Ki, was 0.057 nM.

`Clc1ccncc1OC[C@H]1CCN1` registered an MED in the experiment listed under Mus musculus greater than 6.2 µM/kg. The same compound registered a Ki in experiment [1] of 12 nM. The matching figures for `Clc1ccncc1OC[C@@H]1CCN1`: greater than 62 µM/kg and 260 nM. `Nc1cncc(OC[C@@H]2CCN2)c1`: in the experiment listed under Mus musculus, the MED is greater than 62 µM/kg. In experiment [1], this compound came in with an inhibition constant Ki of 0.082 nM. Compound `C=Cc1ccc(OC[C@@H]2CCN2)cn1` had an MED in the experiment listed under Mus musculus greater than 62 µM/kg. Besides, in experiment [1], the affinity corresponds to a Ki of 1.25 nM. Take `Fc1cncc(OC[C@@H]2CCN2)c1`: the MED in the experiment listed under Mus musculus came to 6.2 µM/kg. The Ki in experiment [1] stood at 0.076 nM. The compound `Brc1ccc(OC[C@H]2CCN2)cn1` registered an MED in the experiment listed under Mus musculus of 0.62 µM/kg. As for `Clc1ncccc1OC[C@H]1CCN1`, the MED in the experiment filed under Mus musculus came to 62 µM/kg.

Consider `CC(=O)NCc1cncc(OC[C@@H]2CCN2)c1`, for which the MED in the experiment filed under Mus musculus was greater than 62 µM/kg. The compound further returned a Ki in experiment [1] of 0.54 nM. The matching figures for `Brc1cncc(OC[C@@H]2CCN2)c1`: greater than 19 µM/kg and 0.18 nM.

As to `C[C@@H]1CN[C@H]1COc1ccc(Cl)nc1`, in experiment [1], affinity was put at a Ki of 7.6 nM. In the experiment filed under Mus musculus, `CCc1cncc(OC[C@@H]2CCN2)c1` returned an MED greater than 62 µM/kg. Further, in the experiment with IMR-32 [5], the Max response was 90%. Besides, the affinity in experiment [1], expressed as Ki, was 0.1 nM. `Brc1ccc(OC[C@@H]2CCN2)cn1` showed an MED in the experiment filed under Mus musculus greater than 6.2 µM/kg. In experiment [1], this compound returned a Ki of 0.021 nM. On to `Clc1cncc(OC[C@@H]2CCN2)c1`, for which, in the experiment listed under Mus musculus, the MED is greater than 6.2 µM/kg. Further, in experiment [1], affinity was put at a Ki of 0.042 nM.

As for `Clc1ccc(OC[C@H]2CCN2)cn1` [TEBANICLINE], in the experiment filed under Mus musculus, the MED came to 0.62 µM/kg. Also, the Ki in experiment [1] stood at 0.04 nM. In turn, `Cc1ccc(OC[C@@H]2CCN2)cn1` yielded an MED in the experiment listed under Mus musculus of 0.62 µM/kg. This compound also showed a Ki in experiment [1] of 0.057 nM. For `Cc1ccc(OC[C@H]2CCN2)cn1`, the MED in the experiment listed under Mus musculus stood at 6.2 µM/kg. Further, the Ki in experiment [1] came out at 0.053 nM.

`c1ccc(-c2ccc(OC[C@@H]3CCN3)cn2)cc1` gave an MED in the experiment listed under Mus musculus greater than 62 µM/kg. Moreover, the Ki in experiment [1] came out at 2.3 nM. On to `COc1ccc(OC[C@H]2CCN2)cn1`, for which the MED in the experiment listed under Mus musculus was greater than 62 µM/kg.

With `Cc1ncccc1OC[C@@H]1CCN1`, the MED in the experiment filed under Mus musculus is greater than 62 µM/kg. For the same compound, the Ki in experiment [1] worked out at 1.36 nM.

Turning to `Clc1ncccc1OC[C@@H]1CCN1`, the MED in the experiment filed under Mus musculus amounted to 62 µM/kg.
